The subject of this assay is osteoclast pregenitor cells. The experiment in a line: Inhibition rates of furan derivatives versus osteoclast formation (TRAP staining). Format: cell-based, mice. As to conditions: TRAP-positive multinucleated cells, untreated control set as 100%. As to the method: First, bone marrow cells were isolated, as follow. After sacrificing 7-9 week female mice by cervical dislocation, femur and tibia were excised aseptically while removing attached soft tissues. After cutting both ends of long bones, 1 ml of an enzyme solution, containing 0.1% collagenase (Gibco), 0.05% trypsin and 0.5 mM EDTA (Gibco), was injected to the bone marrow cavity at one end using a syringe with a 26-guage needle, and bone marrow was then collected. After shaking the recovered bone marrow for 30 min, bone marrow cells were collected, and cultured in α-minimum essential medium (α-MEM) supplemented with 10% FBS for 24 hrs. Then, non-adherent cells were collected, which are osteoclast pregenitors, aliquotted onto culture plates at a density of 2×10^5 cells per well, and cultured for 8 days in α-MEM supplemented with 20 ng/ml of macrophage-colony stimulating factor (M-CSF, Peprotech, USA) and 30 ng/ml RANKL (Peprotech, USA). During the 8 days of culturing, the cells were treated with the Compound 1. Thereafter, osteoclast formation was investigated by fixing the cultured cells and then carrying out TRAP staining, as described in the following Experimental Example 2.2. In addition, resorption activity of osteoclasts was investigated by measuring the absorption area after removing osteoclasts in cultures in calcium phosphate-coated plates, as described in Experimental Example 2.3, below.
After cell culture, the adherent cells were washed with PBS, and TRAP staining was performed, as follows. After being fixed with citrate-acetate-formaldehyde for 5 min, the cells were incubated for 1 hr in acetate buffer (prewarmed at 37° C., pH 5.0) containing naphthol AS-BI phosphate, fast Garnet GBC and 7 mM tartrate buffer (pH 5.0). TRAP-positive multinucleated cells having 3 or more nuclei were considered as osteoclasts.
Osteoclast pregenitor cells were isolated, and their differentiation to mature osteoclasts was induced, according to the same method as in the Experimental Example 2-1, while treated with each of the furan derivatives of the present invention. According to the same method as in the Experimental Example 2-2, TRAP staining performed, and TRAP-positive multinucleated cells were counted. An inhibition rate of each furan derivative against osteoclast formation was expressed as percentage, wherein the number of stained cells in a control not treated the furan derivative was arbitrarily set as 100% (Tables 14 to 16).

With `COc1ccccc1OCc1ccc(C(=O)Oc2ccc(Cl)cc2)o1` [Compound 97], the “Inhibition rate against osteoclast formation, %” value (“Inhibition rate … %” below) reads like this: (0.1 μM) 0%; (1 μM) 0%; (10 μM) 12.75%.

In the case of `Cc1cc(OCc2ccc(C(=O)O)o2)ccc1Cl` [Compound 119], the “Inhibition rate … %” value (0.1 μM) amounted to 0%; the “Inhibition rate … %” value (1 μM) came out at 0%; the “Inhibition rate … %” value (10 μM) is listed as 37.02%.

Take `COc1ccc(NC(=O)c2ccc(COc3ccccc3Cl)o2)cc1Cl` [Compound 142]: the “Inhibition rate … %” value runs as follows: (0.1 μM) 0%; (1 μM) 0%; (10 μM) 32.17%.

In the case of `CC1CCN(C(=O)c2ccc(COc3cc(Cl)ccc3Cl)o2)CC1` [Compound 124], the “Inhibition rate … %” value reads like this: (0.1 μM) 0%; (1 μM) 0%; (10 μM) 7.62%.

With `COc1ccccc1NC(=O)c1ccc(COc2ccccc2OC)o1` [Compound 166], the “Inhibition rate … %” value is on record as 0% (0.1 μM), 0% (1 μM) and 1.08% (10 μM).

For the molecule `CC(C)(C)NC(=O)c1ccc(COc2ccccc2Br)o1` [Compound 129], the “Inhibition rate … %” value (0.1 μM) worked out at 0%; the “Inhibition rate … %” value (1 μM) stood at 0%; the “Inhibition rate … %” value (10 μM) is listed as 2.2%.

Regarding `CC(C)(C)c1ccc(OCc2ccc(C(=O)NC3CCCCC3)o2)cc1` [Compound 134], the “Inhibition rate … %” value is, setting by setting: (0.1 μM) 0%; (1 μM) 0%; (10 μM) 21.42%.

As for `COc1cccc(F)c1CC(=O)OCc1ccc(C=O)o1` [Compound 41], the “Inhibition rate … %” value amounted to 0% (0.1 μM), 6.67% (1 μM) and 56.67% (10 μM).

Consider `Cc1cccc(C)c1NC(=O)c1ccc(COc2ccc(Cl)cc2)o1` [Compound 179], for which the “Inhibition rate … %” value reads like this: (0.1 μM) 0%; (1 μM) 0%; (10 μM) 34.81%.

Consider `COC(=O)c1ccc(COc2ccc(Cl)cc2Cl)o1` [Compound 60], for which the “Inhibition rate … %” value reads like this: (0.1 μM) 0%; (1 μM) 0%; (10 μM) 32.75%.

Regarding `COC(=O)c1ccccc1NC(=O)c1ccc(COc2ccc(Cl)cc2Cl)o1` [Compound 167], the “Inhibition rate … %” value (0.1 μM) is reported as 0%; the “Inhibition rate … %” value (1 μM) turned out to be 22.42%; the “Inhibition rate … %” value (10 μM) was 96.47%.

Turning to `NC(=O)c1ccc(NC(=O)c2ccc(COc3cc(Cl)ccc3Cl)o2)cc1` [Compound 148], the “Inhibition rate … %” value reads like this: (0.1 μM) 0%; (1 μM) 3.05%; (10 μM) 47.55%.

On to `O=Cc1ccc(COC(=O)Cc2c(F)cccc2F)o1` [Compound 33], for which the “Inhibition rate … %” value runs as follows: (0.1 μM) 0%; (1 μM) 3.3%; (10 μM) 50%.

For `COc1ccc(NC(=O)c2ccc(COc3ccc(F)cc3)o2)c([N+](=O)[O-])c1` [Compound 149], the “Inhibition rate … %” value by setting is: (0.1 μM) 0%; (1 μM) 10.32%; (10 μM) 78.34%.

Consider `CC(C)(C)NC(=O)c1ccc(COCC(F)(F)F)o1` [Compound 127], for which the “Inhibition rate … %” value is, setting by setting: (0.1 μM) 0%; (1 μM) 0%; (10 μM) 13.82%.

Regarding `O=C(Nc1ccc(F)c(F)c1)c1ccc(COc2ccc(I)cc2)o1` [Compound 143], the “Inhibition rate … %” value reads like this: (0.1 μM) 0%; (1 μM) 0%; (10 μM) 10.63%.

As for `COc1ccc(NC(=O)c2ccc(COc3ccc(Cl)c(C)c3)o2)cc1` [Compound 150], the “Inhibition rate … %” value runs as follows: (0.1 μM) 0%; (1 μM) 0%; (10 μM) 19.12%.

Consider `CC(C)(C)c1ccc(OCc2ccc(C(=O)Nc3ccccc3)o2)cc1` [Compound 136], for which the “Inhibition rate … %” value by setting is: (0.1 μM) 0%; (1 μM) 0%; (10 μM) 2.49%.

As for `O=C(Nc1ccccc1F)c1ccc(COc2ccc(Cl)cc2)o1` [Compound 178], the “Inhibition rate … %” value by setting is: (0.1 μM) 0%; (1 μM) 0%; (10 μM) 14.09%.

In the case of `COC(=O)c1ccc(COc2ccc(Cl)cc2[N+](=O)[O-])o1` [Compound 66], the “Inhibition rate … %” value is, setting by setting: (0.1 μM) 0%; (1 μM) 0%; (10 μM) 13.58%.

With `O=Cc1ccc(COC(=O)C(c2ccccc2)(c2ccccc2)c2ccccc2)o1` [Compound 40], the “Inhibition rate … %” value reads like this: (0.1 μM) 0%; (1 μM) 16.67%; (10 μM) 43.33%.

Turning to `CCN(CC)C(=O)c1ccc(COc2ccc(Cl)c(C)c2)o1` [Compound 123], the “Inhibition rate … %” value (0.1 μM) is reported as 0%; the “Inhibition rate … %” value (1 μM) turned out to be 6.9%; the “Inhibition rate … %” value (10 μM) was determined as 100%.

On to `CCOc1ccc(OCc2ccc(C(=O)NC(C)(C)C)o2)cc1` [Compound 165], for which the “Inhibition rate … %” value reads like this: (0.1 μM) 12.35%; (1 μM) 28.76%; (10 μM) 88.75%.

On to `Cc1ccc(F)c(NC(=O)c2ccc(COc3ccccc3[N+](=O)[O-])o2)c1` [Compound 158], for which the “Inhibition rate … %” value runs as follows: (0.1 μM) 0%; (1 μM) 0%; (10 μM) 23.57%.

On to `O=C(Nc1ccccc1[N+](=O)[O-])c1ccc(COc2ccccc2Cl)o1` [Compound 183], for which the “Inhibition rate … %” value (0.1 μM) was found to be 0%; the “Inhibition rate … %” value (1 μM) is 0%; the “Inhibition rate … %” value (10 μM) turned out to be 57.39%.

As for `O=C(Nc1cccc([N+](=O)[O-])c1)c1ccc(COc2ccc(I)cc2)o1` [Compound 191], the “Inhibition rate … %” value is 0% (0.1 μM), 0% (1 μM) and 8.06% (10 μM).

Regarding `COC(=O)c1ccc(COc2ccc3c(c2)CCC3)o1` [Compound 70], the “Inhibition rate … %” value (0.1 μM) came to 0%; the “Inhibition rate … %” value (1 μM) amounted to 0%; the “Inhibition rate … %” value (10 μM) worked out at 3.34%.

Consider `O=Cc1ccc(COC(=O)Cc2ccc3ccccc3c2)o1` [Compound 38], for which the “Inhibition rate … %” value is given as 0% (0.1 μM), 23.33% (1 μM) and 20% (10 μM).

Turning to `O=C(Nc1ccc(Br)cc1)c1ccc(COc2ccc(I)cc2)o1` [Compound 146], the “Inhibition rate … %” value by setting is: (0.1 μM) 0%; (1 μM) 0%; (10 μM) 10.03%.

`O=Cc1ccc(COC(=O)Cc2ccccc2)o1` [Compound 32]: the “Inhibition rate … %” value is, setting by setting: (0.1 μM) 0%; (1 μM) 23.3%; (10 μM) 50%.

Consider `COC(=O)c1ccc(COc2ccccc2Cl)o1` [Compound 61], for which the “Inhibition rate … %” value by setting is: (0.1 μM) 0%; (1 μM) 0%; (10 μM) 11.66%.

As to `CC(C)OC(=O)c1ccc(COc2cc(Cl)ccc2Cl)o1` [Compound 95], the “Inhibition rate … %” value turned out to be 0% (0.1 μM), 0% (1 μM) and 0.97% (10 μM).

On to `COC(=O)c1ccc(COc2ccc(Cl)c(C)c2)o1` [Compound 75], for which the “Inhibition rate … %” value (0.1 μM) was 0%; the “Inhibition rate … %” value (1 μM) came out at 0%; the “Inhibition rate … %” value (10 μM) was 0.78%.

As to `O=Cc1ccc(COC(=O)Nc2ccccc2Cl)o1` [Compound 55], the “Inhibition rate … %” value is reported as 0% (0.1 μM), 20% (1 μM) and 20% (10 μM).

The values above are taken from patent publication US20060004088A1, “Furan derivatives for preventing and curing osteoporosis and pharmaceutical compositions containing the same” (OCT INC., priority 2002, published 2006).
